Measured values taken from ChEMBL document CHEMBL5365447, “Pronucleotides of 2',3'-Dideoxy-2',3'-Didehydrothymidine as Potent Anti-HIV Compounds” (J Med Chem, 2023).
The source made the active and inactive calls. No cut-off for these calls is given here.

What was measured:
[1] = Cytotoxicity against human CEM cells assessed as reduction in cell viability incubated for 4 to 5 days by light microscopic analysis; format: toxicity, cell-based; details: CEM cells (CCRF-CEM), time 4-5 day
[2] = molecular target: DNA polymerase beta (Homo sapiens) (UniProt P06746); experiment: Substrate activity at human DNA polymerase beta measured after 4 hrs by electrophoresis based primer extension assay
[3] = Prodrug conversion in human CEM/0 cell extract assessed as metabolite formation by measuring half life by HPLC analysis; format: ADME; details: ccrf-cem
[4] = test system: Human immunodeficiency virus 2; experiment: Antiviral activity against HIV-2 ROD infected in wild-type human CEM/0 cells assessed as inhibition of virus-induced cytopathic effect incubated for 4 to 5 days by light microscopic analysis; format: functional, organism-based; details: Human immunodeficiency virus 2, ROD, CCRF-CEM
[5] = Prodrug conversion in pH 7.3 phosphate buffer assessed as ((2S,5R)-5-(5-methyl-2,4-dioxo-3,4-dihydropyrimidin-1(2H)-yl)-2,5-dihydrofuran-2-yl)methyl tri-hydrogen diphosphate formation by measuring half life in presence of pig liver esterase by HPLC analysis; format: ADME
[6] = test system: Human immunodeficiency virus; experiment: Substrate activity at HIV reverse transcriptase measured after 4 hrs by electrophoresis based primer extension assay
[7] = test system: Human immunodeficiency virus 2; experiment: Antiviral activity against HIV-2 ROD infected in thymidine kinase-deficient human CEM cells assessed as inhibition of virus-induced cytopathic effect incubated for 4 to 5 days by light microscopic analysis; format: functional, organism-based; details: Human immunodeficiency virus 2, ROD, CCRF-CEM
[8] = Retention time of the compound by HPLC analysis; format: physicochemical
[9] = test system: Human immunodeficiency virus 2; experiment: Potency index, ratio of 3'-deoxy-2',3'-dehydrothymidine EC50 to compound EC50 for antiviral activity against HIV-2 ROD infected in wild-type human CEM/0 cells; format: functional
[10] = test system: Human immunodeficiency virus 1; experiment: Antiviral activity against HIV-1 HE infected in wild-type human CEM/0 cells assessed as inhibition of virus-induced cytopathic effect incubated for 4 to 5 days by light microscopic analysis; format: functional, organism-based; details: Human immunodeficiency virus 1, HE, CCRF-CEM
[11] = molecular target: T1, DNA polymerase subunit gamma-1 (Homo sapiens) (UniProt P54098); experiment: Substrate activity at human DNA polymerase gamma measured after 4 hrs by electrophoresis based primer extension assay
T1 sequence (whole entry): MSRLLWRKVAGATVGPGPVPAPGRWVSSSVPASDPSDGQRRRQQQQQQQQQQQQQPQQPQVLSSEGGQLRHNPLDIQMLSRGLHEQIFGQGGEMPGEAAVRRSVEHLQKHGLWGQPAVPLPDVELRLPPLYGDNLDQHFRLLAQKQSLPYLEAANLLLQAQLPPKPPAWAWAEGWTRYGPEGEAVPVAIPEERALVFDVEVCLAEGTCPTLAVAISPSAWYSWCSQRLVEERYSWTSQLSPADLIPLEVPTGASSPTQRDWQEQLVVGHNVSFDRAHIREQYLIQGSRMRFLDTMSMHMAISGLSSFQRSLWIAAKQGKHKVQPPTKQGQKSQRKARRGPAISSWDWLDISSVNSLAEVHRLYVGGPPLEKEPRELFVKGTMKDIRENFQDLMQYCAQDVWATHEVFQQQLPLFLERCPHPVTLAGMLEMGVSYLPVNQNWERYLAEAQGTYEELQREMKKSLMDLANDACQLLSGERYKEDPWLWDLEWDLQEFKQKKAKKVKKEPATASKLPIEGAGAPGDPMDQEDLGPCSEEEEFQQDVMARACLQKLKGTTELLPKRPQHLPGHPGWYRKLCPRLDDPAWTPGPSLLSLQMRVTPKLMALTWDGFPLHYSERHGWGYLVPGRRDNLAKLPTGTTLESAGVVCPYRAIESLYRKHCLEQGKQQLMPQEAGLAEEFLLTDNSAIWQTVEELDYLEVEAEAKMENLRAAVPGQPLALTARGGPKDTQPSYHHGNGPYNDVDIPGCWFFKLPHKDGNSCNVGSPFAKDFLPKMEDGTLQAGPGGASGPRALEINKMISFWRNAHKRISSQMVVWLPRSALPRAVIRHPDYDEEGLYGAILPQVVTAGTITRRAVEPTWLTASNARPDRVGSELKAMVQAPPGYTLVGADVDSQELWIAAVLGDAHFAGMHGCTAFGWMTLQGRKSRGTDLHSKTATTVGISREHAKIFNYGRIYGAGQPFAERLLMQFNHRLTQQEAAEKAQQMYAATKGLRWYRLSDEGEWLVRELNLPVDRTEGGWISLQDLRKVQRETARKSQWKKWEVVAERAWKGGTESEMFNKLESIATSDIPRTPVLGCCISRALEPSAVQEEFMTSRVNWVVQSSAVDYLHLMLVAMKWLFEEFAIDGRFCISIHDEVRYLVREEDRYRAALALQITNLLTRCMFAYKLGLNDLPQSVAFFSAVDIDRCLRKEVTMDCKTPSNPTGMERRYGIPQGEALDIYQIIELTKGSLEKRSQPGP

[12] = molecular target: T2, DNA polymerase alpha catalytic subunit (Homo sapiens) (UniProt P09884); experiment: Substrate activity at human DNA polymerase alpha measured after 4 hrs by electrophoresis based primer extension assay
T2 sequence (whole entry): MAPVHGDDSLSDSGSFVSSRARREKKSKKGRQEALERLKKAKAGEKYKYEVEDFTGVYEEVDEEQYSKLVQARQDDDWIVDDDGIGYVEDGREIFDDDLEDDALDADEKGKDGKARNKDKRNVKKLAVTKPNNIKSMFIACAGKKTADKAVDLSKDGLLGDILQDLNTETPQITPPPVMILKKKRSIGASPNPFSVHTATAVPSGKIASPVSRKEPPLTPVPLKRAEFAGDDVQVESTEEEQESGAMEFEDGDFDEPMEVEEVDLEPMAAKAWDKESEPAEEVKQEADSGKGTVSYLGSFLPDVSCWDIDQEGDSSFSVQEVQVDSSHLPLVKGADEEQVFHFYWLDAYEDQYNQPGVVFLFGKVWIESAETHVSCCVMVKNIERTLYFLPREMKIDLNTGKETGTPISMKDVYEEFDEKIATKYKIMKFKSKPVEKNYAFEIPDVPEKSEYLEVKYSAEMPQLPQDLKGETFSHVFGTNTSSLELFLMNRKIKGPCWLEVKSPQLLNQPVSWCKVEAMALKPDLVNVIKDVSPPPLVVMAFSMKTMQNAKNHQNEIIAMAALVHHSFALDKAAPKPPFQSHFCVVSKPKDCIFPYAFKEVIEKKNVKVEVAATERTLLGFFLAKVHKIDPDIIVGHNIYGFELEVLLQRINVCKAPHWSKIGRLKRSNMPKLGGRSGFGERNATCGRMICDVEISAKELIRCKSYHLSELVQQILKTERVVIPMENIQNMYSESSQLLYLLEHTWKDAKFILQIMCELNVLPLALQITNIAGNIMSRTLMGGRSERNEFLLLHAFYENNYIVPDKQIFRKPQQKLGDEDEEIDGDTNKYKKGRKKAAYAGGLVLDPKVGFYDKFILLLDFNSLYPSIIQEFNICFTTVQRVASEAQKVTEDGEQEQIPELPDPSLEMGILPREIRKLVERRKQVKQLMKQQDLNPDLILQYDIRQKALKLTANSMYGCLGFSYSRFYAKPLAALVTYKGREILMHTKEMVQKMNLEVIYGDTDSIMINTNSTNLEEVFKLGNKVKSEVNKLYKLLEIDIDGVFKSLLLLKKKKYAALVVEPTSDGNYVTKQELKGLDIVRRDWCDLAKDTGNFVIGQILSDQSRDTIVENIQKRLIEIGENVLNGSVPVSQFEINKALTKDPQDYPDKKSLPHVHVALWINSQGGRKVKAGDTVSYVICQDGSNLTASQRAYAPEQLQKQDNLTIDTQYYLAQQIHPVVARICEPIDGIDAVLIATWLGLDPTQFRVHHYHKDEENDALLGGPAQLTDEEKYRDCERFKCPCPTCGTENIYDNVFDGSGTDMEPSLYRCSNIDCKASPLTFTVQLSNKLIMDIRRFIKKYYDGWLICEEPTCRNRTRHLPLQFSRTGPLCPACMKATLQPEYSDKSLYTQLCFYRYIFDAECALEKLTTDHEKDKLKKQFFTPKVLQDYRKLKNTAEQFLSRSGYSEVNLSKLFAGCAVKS

[13] = test system: Human immunodeficiency virus 2; experiment: Potency index, ratio of 3'-deoxy-2',3'-dehydrothymidine EC50 to compound EC50 for antiviral activity against HIV-2 ROD infected in thymidine kinase-deficient human CEM[…] cells; format: functional
[14] = test system: Human immunodeficiency virus 1; experiment: Potency index, ratio of 3'-deoxy-2',3'-dehydrothymidine EC50 to compound EC50 for antiviral activity against HIV-1 HE infected in wild-type human CEM/0 cells; format: functional
[15] = Chemical stability of the compound in phosphate buffer assessed as half life at pH 7.3 by HPLC analysis; format: physicochemical
[16] = Selectivity index, ratio of CC50 for human CEM cells to EC50 for HIV-2 ROD infected in thymidine kinase-deficient human CEM cells; format: toxicity; details: read-out: Ratio CC50/EC50
[17] = Chemical stability of the compound in phosphate buffer saline assessed as half life at pH 7.3 by HPLC analysis; format: physicochemical; details: phosphate buffered saline
[18] = Prodrug conversion in pH 7.3 phosphate buffer assessed as metabolite formation by measuring half life in presence of pig liver esterase by HPLC analysis; format: ADME; details: isolated protein

Activity [6]	half-life [17] [days]	Drug metabolism [18]	SMILES	CC50 [1] [nM]	Activity [2]	Drug metabolism [3]	EC50 [4] [nM]	Drug metabolism [5]	EC50 [7] [nM]	Retention_time [8] [min]	Ratio EC50 [9]	EC50 [10] [nM]	Activity [11]	Activity [12]	Ratio EC50 [13]	Ratio EC50 [14]	half-life [15] [days]	selectivity ratio [16]	t1/2 [3] [days]	t1/2 [18] [days]
Active			CCCCCCCCCCCCCCCCCCOP(=O)(OCC(CC)CCCC)OP(=O)(O)OP(=O)(O)OC[C@@H]1C=C[C@H](n2cc(C)c(=O)[nH]c2=O)O1.N.N (stereo partly specified)	34000	inactive	Metabolite_Notdetected	36	Metabolite_Notdetected	5	17.3	4	75	inactive	inactive	10000	4	> 83.3	6800		
	11.9		CCCCCCCCCCCCOP(=O)(OCc1ccc(OC(=O)CCCC)cc1)OP(=O)(O)OC[C@@H]1C=C[C@H](n2cc(C)c(=O)[nH]c2=O)O1.N (stereo partly specified)	> 100000			360		1390	16.6		390						> 72	0.0458	< 0.00042
	11.6	Metabolite_Notdetected	CCCCCCCCCCCC(=O)Oc1ccc(COP(=O)(OCCCC)OP(=O)(O)OC[C@@H]2C=C[C@H](n3cc(C)c(=O)[nH]c3=O)O2)cc1.N (stereo partly specified)	83100		Metabolite_Notdetected	53		750	16.6		230						111		
	15.5		CCCCCCCCCCCCOP(=O)(OCc1ccc(OC(=O)CCCCCCCCCCC)cc1)OP(=O)(O)OC[C@@H]1C=C[C@H](n2cc(C)c(=O)[nH]c2=O)O1.N (stereo partly specified)	48400			120		48	20.9		120						1010	0.188	0.0279
			CCCCCCCCCCCCCCCCCCP(=O)(OCC(CC)CCCC)OP(=O)(O)OP(=O)(O)OC[C@@H]1C=C[C@H](n2cc(C)c(=O)[nH]c2=O)O1.N.N (stereo partly specified)	42000	inactive	Metabolite_Notdetected	140	Metabolite_Notdetected	240	17.1	4	90	inactive	inactive	10000	4	> 41.7	175		
			CCCCCCCCCCCCCCCCCCP(=O)(OCCCCCCCCCCCC)OP(=O)(O)OP(=O)(O)OC[C@@H]1C=C[C@H](n2cc(C)c(=O)[nH]c2=O)O1.N.N (stereo partly specified)	50000	inactive	Metabolite_Notdetected	210	Metabolite_Notdetected	350	18.9	4	130	inactive	inactive	10000	4	34.6	143		

SMILES	Activity [6]	half-life [17] [days]	Drug metabolism [18]	CC50 [1] [nM]	Activity [2]	Drug metabolism [3]	EC50 [4] [nM]	Drug metabolism [5]	EC50 [7] [nM]	Retention_time [8] [min]	Ratio EC50 [9]	EC50 [10] [nM]	Activity [11]	Activity [12]	Ratio EC50 [13]	Ratio EC50 [14]	half-life [15] [days]	selectivity ratio [16]	t1/2 [3] [days]	t1/2 [18] [days]
CCCCCCCCCCCCCCCCCCP(=O)(OCc1ccc(OC(=O)CCCC)cc1)OP(=O)(O)OC[C@@H]1C=C[C@H](n2cc(C)c(=O)[nH]c2=O)O1.N (stereo partly specified)		> 83.3		14600			42		2	20		44						7290	> 0.33	0.0104
CCCCCCCCCCCCP(=O)(OCc1ccc(OC(=O)CCCCCCCCCCC)cc1)OP(=O)(O)OC[C@@H]1C=C[C@H](n2cc(C)c(=O)[nH]c2=O)O1.N (stereo partly specified)		> 83.3		41100			60		10	20.6		130						4110	0.12	0.0112
